Experiment: Hair treatment protocol: solvent pre-treatment before oxidative dyeing, colour strength K/S measured by spectrophotometer
Settings: for K/.S vs. DI Water: switch soaked 5 minutes in neat solvent, then level 3 oxidative hair colorant (Nice n' Easy) 30 minutes at 30°C, dye uptake change vs. DI water

| Compound | K/.S vs. DI Water [%] | K/S vs. DI Water (Glycerine Content 10 % wt. in deionised water as pre-treatment composition) [%] | K/S vs. DI Water (Glycerine Content 25 % wt. in deionised water as pre-treatment composition) [%] | K/S vs. DI Water (Glycerine Content 50 % wt. in deionised water as pre-treatment composition) [%] | K/S vs. DI Water (Glycerine Content 70 % wt. in deionised water as pre-treatment composition) [%] |
| --- | --- | --- | --- | --- | --- |
| OCCOCCO [Diethyleneglycol] | -50 |  |  |  |  |
| OCC(O)CO [Glycerine] | -40 | -2 | -4 | -20 | -43 |
